Row | Compound | melting point [°C]
1 | CCCNC(=O)C1(CCCCSc2nc3ccc(OCC)cc3s2)c2ccccc2-c2ccccc21 | 112 to 114
2 | CCCN(Cc1cccc(C(=N)N)c1)C(=O)Nc1ccc(-c2ccccc2S(=O)(=O)NC(C)(C)C)cc1 | 201 to 202
3 | Cc1c(O)ccc2c1OCC(c1ccc3c(c1)OCO3)C2 (configuration not stated) | 130 to 131
4 | CCOC(=O)C=Cc1cccc([N+](=O)[O-])c1C | 53 to 55
5 | Cn1cc(S(=O)(=O)Cl)c(=O)c2ccccc21 | 313 to 315
6 | COc1cccc(-c2nc(C(=O)c3ccc(N)c(OC)c3)n3ccccc23)c1 | 210
7 | COC(=O)c1cc(C(C)=O)cnc1C1=NC(C)(C(C)C)C(=O)N1 (configuration not stated) | 105 to 108
8 | CCC(c1ccccc1)c1c(O)c2c(oc1=O)CCC2 (configuration not stated) | 183 to 186
9 | N#Cc1cc2c(c3ccc(=O)[nH]c13)OC(CN=[N+]=[N-])C2 (configuration not stated) | 213 to 215
10 | C=CS(=O)(=O)CCC(F)(F)C(F)(F)C(F)(F)C(F)(F)C(F)(F)C(F)(F)F | 58 to 60
11 | CCC(SN(C(=O)NC(=O)c1c(F)cccc1F)c1ccc(Oc2ccc(C(F)(F)F)cc2Cl)cc1F)C(=O)NC (configuration not stated) | 136 to 138
12 | CC(Cn1ncnn1)n1nnc2cc3c(=O)n(C4CCC4)nnc3cc2c1=O (configuration not stated) | 152 to 154
13 | COc1ccc(C2CCCCC2)cc1-c1csc(NC(=O)C2CCN(C(=O)c3cnccn3)CC2)n1 | 129
14 | C[C@H]1CC(=O)O[C@@H]1CO | 104 to 105
15 | O=c1[nH]c2cc(Cl)c(Cl)cc2n2ccnc12 | > 300
16 | COC(=O)c1ccc2ccc3ccccc3c2c1C(=O)OC | 117
17 | O=C(OCc1cc(OCCCO)cc(OCCCO)c1)c1ccccc1 | 78 to 82
18 | Cc1ccc(C)c(S(=O)(=O)Nc2onc(C)c2Cl)c1 | 92 to 93
19 | CN(C)C(=N[N+](=O)[O-])NCc1ccc(Cl)nc1 | 160 to 162
20 | Cc1noc(NS(=O)(=O)c2ccsc2C(=O)Nc2ccccc2)c1Br | 168 to 170
21 | CC(C)(C)c1cc(-c2nnc(C(N)=O)s2)cc(C(C)(C)C)c1O | 200 to 201
22 | C=CCN1C(=C)C(=O)N[C@@H](Cc2ccccc2)C1=O | 102 to 110
23 | COC(=O)c1nc(Cl)nc(N)c1Cl | 164 to 166

Row | Compound | melting point [°C]
24 | COC(=O)c1cc(OCc2ccccc2)c2nc(C)n(C)c2c1 | 166
25 | COc1cc2c(=O)c(S(=O)(=O)N(C)C)cn(C)c2cc1C | 232 to 233
26 | CC(C)c1cccc(C(C)C)c1NC(=O)CN1CCN(CCCSc2nc3ccccc3o2)CC1 | 123 to 125
27 | N#Cc1ccc2c([N+](=O)[O-])cc3c(c2c1)C(CCl)CN3 (configuration not stated) | 231 to 234
28 | CC(C)(C)C(=O)Nc1ccc2oc3c(c2c1)CCCC3 | 210 to 211
29 | COc1ccc(C(O)c2nn(C)c3c2CCc2c(C(N)=O)sc(Oc4ccc5c(c4)OCO5)c2-3)cc1 (configuration not stated) | 187 to 188
30 | Oc1ccc(CCc2cccc(O)c2)cc1 | 108
31 | CSc1ncc2c(n1)N(c1ccccc1)C(=O)N(c1ccccc1Cl)C2 | 79.5 to 82.4
32 | O=[N+]([O-])c1ccc(Cl)c(C=Cc2nc3ccccc3s2)c1 | 188 to 189
33 | CCn1cccc1C(=O)C(C#N)C(=O)Nc1ccccc1 (configuration not stated) | 77 to 79
34 | CCN(CC)CCOc1cccc2c1c1cccc(Cl)c1n2Cc1ccccc1 | 73.5 to 75
35 | O=C(O)c1cccc(-c2cc(-c3ccc(Cl)cc3)on2)c1 | 293 to 295
36 | CCCOc1ccc(-c2ncccc2S(=O)(=O)Nc2ncc(C)nc2OC)cc1 | 134 to 135
37 | Cc1c(O)cccc1C(=O)N[C@@H](Cc1ccccc1)[C@H](O)C(=O)N1CSC(C)(C)[C@H]1C(=O)NCc1ccc(N)cc1 | 107 to 109
38 | CC(=O)Nc1ccc(S(=O)CC(=O)C23CC4CC(CC(C4)C2)C3)cc1 (configuration not stated) | 174 to 176
39 | Cc1ccc(S(=O)(=O)Oc2ccc(S(=O)(=O)c3c(C)cn4ccccc34)cc2)cc1 | 169
40 | CN1Cc2c(C(N)=S)ncn2-c2cccc(Cl)c2C1=O | 300 to 302
41 | CCCc1cn(C(C)(C)C(=O)N(C)C)nc1-c1ccccc1 | 98.5 to 101
42 | COC(=O)CN1CCC[C@H](OCc2cc(C(F)(F)F)cc(C(F)(F)F)c2)[C@@H]1c1ccccc1 (relative stereo) | 60 to 70
43 | O=C(O)c1cc2cc(Cl)ccc2[nH]c1=O | > 310
44 | CN(C1CCN(Cc2ccc(F)cc2)CC1)S(=O)(=O)c1ccc(Nc2nccc(Nc3ccc(F)cc3)n2)cc1 | 129 to 131
45 | Cc1nc2cc(C(F)(F)F)ccc2n1NC(=O)c1ccc(Cl)c(S(N)(=O)=O)c1 | 193 to 195

Continued, values first:

Row | melting point [°C] | Compound
46 | 173 to 175 | CN(C)C=Nc1nnnc2c1ncn2C1CC(O)C(CO)O1 (configuration not stated)
47 | 114 to 116 | [N-]=[N+]=NCCCc1cc(-c2ccccc2)n(-c2ccc(S(N)(=O)=O)cc2)n1
48 | 205 to 207 | NCCCc1cc(Nc2nc(-c3ccccc3)nc3ccccc23)[nH]n1
49 | 281 to 284 | COc1ccc2cc3c(c(-c4ccc(F)cc4)c2c1)C(=O)NC3=O
50 | 217 to 219 | O=C(NC(=O)c1cccs1)NC1CCN(Cc2ccc3ccccc3c2)CC1
51 | 204 to 206 | COC(=O)c1cc(-c2ccc(-c3nccs3)cc2)n(-c2ccc(S(N)(=O)=O)cc2)n1
52 | 288 to 290 | COC(=O)c1ccccc1SSc1ccccc1C(=O)Nc1ccc(S(N)(=O)=O)cc1
53 | 171 to 173 | O=C(CCC(=O)[C@H](Cc1ccccc1)NC(=O)c1ccccc1)N[C@@H](Cc1c[nH]c2ccccc12)C(=O)O
54 | 205 to 206 | Cn1nc(Br)c2c(=O)n3c(nc21)SCC3
55 | 230 | COc1cc(-c2cc3ccccc3[nH]2)cc(OC)c1O
56 | 283 to 284 | N#Cc1cc2cccc(NS(=O)(=O)c3cccs3)c2[nH]1
57 | 185 to 189 | CCC(C(CC(=O)OC)c1ccc2c(c1)OCO2)[N+](=O)[O-] (configuration not stated)
58 | 124 | CCc1cc(Br)cc(C(=O)Nc2ccc(F)cn2)n1
59 | 130 to 132 | COc1ccc2c(c1)c(CC(=O)O)c(C)n2C(=O)c1ccc(F)cc1
60 | 248 to 249 | Cc1cc(-c2nc3ccc(CCN4CCOCC4)cc3c(=O)[nH]2)cc(C)n1
61 | 98 to 99 | CC(C)(C)c1ccc(CI)cc1[N+](=O)[O-]
62 | 107 to 110 | COC(=O)c1ccc(NC(=O)c2ccccc2OC(C)C)c(C(=O)OC)c1
63 | 228 | Cc1cc(C)c2nc(NCCCN3CCOCC3)n(Cc3nc(C)ccc3O)c2c1
64 | 142 to 144 | CCCCCNC(=O)n1nc(Oc2ncc(C(F)(F)F)cc2Cl)cc1C
65 | 214 to 215 | Cc1cc(C)c2c(c1O)C(NCc1ccccc1)=C(c1ccccc1)C2
66 | 183 to 184 | O=C(NC(Cc1ccccc1)C(=O)O)c1ccccc1 (configuration not stated)
67 | 94 to 96 | CC(C)Oc1ccc(-c2ccc(C#N)cc2)cc1C=O
68 | 165 | Nc1cscc1NC(=S)Nc1c(Cl)cccc1Cl
69 | 241 to 243 | Cn1c(C(F)(F)F)cc(=O)n(-c2ccc3snc(C(=O)NS(C)(=O)=O)c3c2)c1=O
70 | 201 to 203 | CC(=O)c1ccc(CNC(=O)c2cccnc2Oc2cccnc2)s1
71 | 130 to 133 | COc1c(F)c(F)cc(C(N)=O)c1F

Row | melting point [°C] | Compound
72 | 215 to 216 | O=C(O)c1cc2c(=O)n(C3CCCC3)c3ccccc3n2c1
73 | 129 to 131 | CC(CS)C(=O)NC(CC(=O)O)C(=O)O (configuration not stated)
74 | 72.5 to 73.5 | COC(=O)CCCCCCCCCCCCCCCCCCCS(=O)(=O)c1ccc(C)cc1
75 | 262 | N#Cc1c(N2CCN(C(=O)c3cccs3)CC2)c2cc(F)cnc2n(CC(=O)c2ccccc2)c1=O
76 | 205 to 206 | Clc1ccc([C@@H]2CNc3c(ccc4ccccc34)S2)cc1
77 | 101 to 102 | O[C@@H](CNCCOc1ccc2sc(-c3ncon3)cc2c1)COc1ccccc1
78 | 219 | COc1cc2c(cc1OC)N(c1ccc([N+](=O)[O-])cc1[N+](=O)[O-])CC2
79 | > 300 | CCC(C)C(C)C(=O)Nc1ccc2c(C)cn3c(=O)c(C(=O)Nc4nnn[nH]4)cnc3c2c1 (configuration not stated)
80 | 102 to 104 | COc1cc2c(c(OC)c1/C=C/c1ccc(CO)cc1)C(C)(C)CCC2(C)C
81 | 172 to 173 | CC(C)c1ccc(OC(Cc2ccc(OCCNC(=O)c3ccc(-c4ccccc4)cc3)cc2)C(=O)O)cc1 (configuration not stated)
82 | 96 | C=CCN1CC(c2ccc(N)cc2F)CCS1(=O)=O (configuration not stated)
83 | 126 to 128 | CC(C)C(=O)Nc1ccc(Br)c(C(F)(F)F)c1
84 | 187 to 189 | COC(=O)c1ccccc1NC(=O)c1cnc(S(C)(=O)=O)nc1
85 | 195 to 196 | O=C1NCc2c1cccc2-c1cccc2cc(Cc3cccc(C(F)(F)F)c3)sc12
86 | 180 to 184 | COc1cc2cc(C(=O)Nc3cc(OCc4ccccc4)c4ccccc4c3CCCl)[nH]c2c(OC)c1OC
87 | 75 | CC(=O)OC1CSC(Oc2ccccc2-c2ccno2)C(OC(C)=O)C1OC(C)=O (configuration not stated)
88 | 175 to 176 | CC(C)(C)c1cc(CCc2ccccc2NC(=O)NC2CCN(CCc3ccccc3)CC2)cc(C(C)(C)C)c1O
89 | 261 to 263 | COc1cc(OC)c2c(=O)c3oc4ccccc4c3oc2c1
90 | 160 to 161 | COc1ccc(C(=O)NCC(=O)N2c3ccccc3N(Cc3ccccc3)C(=O)[C@H]3CCC[C@H]32)cc1 (relative stereo)
91 | 115 to 116 | COC(=O)CCC(=O)c1ccc(O)cc1
92 | 96 to 97 | CCOC(=O)c1cccc(-c2cccc3cc(CBr)sc23)c1
93 | 201 | ClCCCOc1ccc(-c2ccc(OCCCCl)cc2)cc1
94 | 85 to 89 | CCCc1c(OCC(O)COc2cccc(N)c2)ccc(C(C)=O)c1O (configuration not stated)
95 | 112 | CCCc1nc(C)n2ncnc2c1Cc1ccc(-c2ccccc2C#N)cc1
96 | 160 to 162 | COc1cccc([C@H]2O[C@H](CC(=O)Nc3cc4c(c(CCC(=O)O)c3)CCCC4)C(=O)N(CC(C)(C)CO)c3ccc(Cl)cc32)c1OC
97 | 135 to 137 | CC(C)(C)OC(=O)C=Cc1ccc(C[C@H](NC(=O)OC(C)(C)C)C(=O)OC(c2ccccc2)c2ccccc2)cc1

Source: a melting point compilation (Tetko et al.; mined from patent text by program, amines drawn as free bases though some values may be those of a salt)
